Measurements from patent US20250122219A1 (priority 2023, published 2025).
Like-named read-outs stand apart in the source and are kept apart here.

How the values were obtained:
HIV-1 (IIIB) = test: Antiviral assay in MT-4 cells; assay type: cell-based
Outline: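 Read-out: CellTiter-Glo luminescence after 5 days at 37 °C, reflecting survival of MT-4 cells infected with HIV-1 IIIB (1:250 fresh stock dilution) versus mock-infected. Compounds serially diluted into RPMI with 10% FBS; AZT at 5 μM served as positive control.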

[1] = Cytotoxicity assay in MT-4 cells; assay type: cell-based; conditions: human; uninfected MT-4 cells, 5 days incubation, Cell Titer Glo; read-out: MT4 CC50
Outline: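 Viability read by Cell Titer Glo luminescence after 5 days at 37 °C. MT-4 cells, not infected, in complete RPMI (10% FBS), received compound dilution series. Base cytotoxicity set with […] puromycin.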

[2] = Human immunodeficiency virus 1, MT4, 120 h, HIV-1 IIIB in MT-4 cells, 5 days incubation, Cell Titer Glo, read-out: MT4 EC50

Structure (SMILES)	EC50 (HIV-1 (IIIB); [2]) [nM]	CC50 at 5 days [1] [nM]	EC50 (HIV-1 (IIIB); Human immunodeficiency virus 1, IIIB, MT4, 120 h, read-out: MT4 EC50 (nM)) [nM]
CC1=NO[C@@]2(CC[C@H](C)N3C[C@H]2n2cc(C(=O)NCc4ccc(F)cc4F)c(=O)c(OC(=O)OCCCCCCCC(C)C)c2C3=O)C1 [Example 160, (3′S,5S,7′R)-10′-((2,4-difluorobenzyl)carbamoyl)-3,3′-dimethyl-1′,11′-dioxo-1′,4′,5′,11′-tetrahydro-3′H,4H,7′H-spiro[isoxazole-5,6′-[2,7]methanopyrido[1,2-a][1,4]diazonin]-12′-yl (8-methylnonyl) carbonate]	1.64	12600	
COC1=NO[C@@]2(CC[C@H](C)N3C[C@H]2n2cc(C(=O)NCc4ccc(F)cc4F)c(=O)c(OC(=O)OCCCCCCCC(C)C)c2C3=O)C1 [Example 161, (3′S,5S,7′R)-10′-((2,4-difluorobenzyl)carbamoyl)-3-methoxy-3′-methyl-1′,11′-dioxo-1′,4′,5′,11′-tetrahydro-3′H,4H,7′H-spiro[isoxazole-5,6′-[2,7]methanopyrido[1,2-a][1,4]diazonin]-12′-yl (8-methylnonyl) carbonate]	1.59	40600	
COCCOCCOCCOCCOCCOCCOCCOC(=O)Oc1c2n(cc(C(=O)NCc3ccc(F)cc3F)c1=O)[C@@H]1CN(C2=O)[C@@H](C)CC[C@]12CC(C)=NO2 [Example 162, (3′S,5S,7′R)-10′-((2,4-difluorobenzyl)carbamoyl)-3,3′-dimethyl-1′,11′-dioxo-1′,4′,5′,11′-tetrahydro-3′H,4H,7′H-spiro[isoxazole-5,6′-[2,7]methanopyrido[1,2-a][1,4]diazonin]-12′-yl (2,5,8,11,14,17,20-heptaoxadocosan-22-yl) carbonate]	2.42	27800	
COCCOCCOCCOCCOCCOCCOCCOC(=O)Oc1c2n(cc(C(=O)NCc3ccc(F)cc3F)c1=O)[C@@H]1CN(C2=O)[C@@H](C)CC[C@]12CC(OC)=NO2 [Example 163, (3′S,5S,7′R)-10′-((2,4-difluorobenzyl)carbamoyl)-3-methoxy-3′-methyl-1′,11′-dioxo-1′,4′,5′,11′-tetrahydro-3′H,4H,7′H-spiro[isoxazole-5,6′-[2,7]methanopyrido[1,2-a][1,4]diazonin]-12′-yl (2,5,8,11,14,17,20-heptaoxadocosan-22-yl) carbonate]	2.08	37600	
CCOC(=O)OCOc1c2n(cc(C(=O)NCc3ccc(F)cc3F)c1=O)[C@@H]1CN(C2=O)[C@@H](C)CC[C@]12CC(OC)=NO2 [Example 173, (((3′S,5S,7′R)-10′-((2,4-difluorobenzyl)carbamoyl)-3-methoxy-3′-methyl-1′,11′-dioxo-1′,4′,5′,11′-tetrahydro-3′H,4H,7′H-spiro[isoxazole-5,6′-[2,7]methanopyrido[1,2-a][1,4]diazonin]-12′-yl)oxy)methyl ethyl carbonate]	4.75	37900	
CCCOC(=O)OCOc1c2n(cc(C(=O)NCc3ccc(F)cc3F)c1=O)[C@@H]1CN(C2=O)[C@@H](C)CC[C@]12CC(C)=NO2 [Example 174, (((3′S,5S,7′R)-10′-((2,4-difluorobenzyl)carbamoyl)-3,3′-dimethyl-1′,11′-dioxo-1′,4′,5′,11′-tetrahydro-3′H,4H,7′H-spiro[isoxazole-5,6′-[2,7]methanopyrido[1,2-a][1,4]diazonin]-12′-yl)oxy)methyl propyl carbonate]	2.4	18100	
CCCOC(=O)OCOc1c2n(cc(C(=O)NCc3ccc(F)cc3F)c1=O)[C@@H]1CN(C2=O)[C@@H](C)CC[C@]12CC(OC)=NO2 [Example 175, (((3′S,5S,7′R)-10′-((2,4-difluorobenzyl)carbamoyl)-3-methoxy-3′-methyl-1′,11′-dioxo-1′,4′,5′,11′-tetrahydro-3′H,4H,7′H-spiro[isoxazole-5,6′-[2,7]methanopyrido[1,2-a][1,4]diazonin]-12′-yl)oxy)methyl propyl carbonate]	2.06	23300	
CCCCOC(=O)OCOc1c2n(cc(C(=O)NCc3ccc(F)cc3F)c1=O)[C@@H]1CN(C2=O)[C@@H](C)CC[C@]12CC(C)=NO2 [Example 176, butyl ((((3′S,5S,7′R)-10′-((2,4-difluorobenzyl)carbamoyl)-3,3′-dimethyl-1′,11′-dioxo-1′,4′,5′,11′-tetrahydro-3′H,4H,7′H-spiro[isoxazole-5,6′-[2,7]methanopyrido[1,2-a][1,4]diazonin]-12′-yl)oxy)methyl) carbonate]	0.284	23000	
CCCCOC(=O)OCOc1c2n(cc(C(=O)NCc3ccc(F)cc3F)c1=O)[C@@H]1CN(C2=O)[C@@H](C)CC[C@]12CC(OC)=NO2 [Example 177, butyl ((((3′S,5S,7′R)-10′-((2,4-difluorobenzyl)carbamoyl)-3-methoxy-3′-methyl-1′,11′-dioxo-1′,4′,5′,11′-tetrahydro-3′H,4H,7′H-spiro[isoxazole-5,6′-[2,7]methanopyrido[1,2-a][1,4]diazonin]-12′-yl)oxy)methyl) carbonate]	0.366	23900	
CCCCCCCCOC(=O)OCOc1c2n(cc(C(=O)NCc3ccc(F)cc3F)c1=O)[C@@H]1CN(C2=O)[C@@H](C)CC[C@]12CC(C)=NO2 [Example 178, (((3′S,5S,7′R)-10′-((2,4-difluorobenzyl)carbamoyl)-3,3′-dimethyl-1′,11′-dioxo-1′,4′,5′,11′-tetrahydro-3′H,4H,7′H-spiro[isoxazole-5,6′-[2,7]methanopyrido[1,2-a][1,4]diazonin]-12′-yl)oxy)methyl octyl carbonate]		15800	2.64
CCCCCOC(=O)OCOc1c2n(cc(C(=O)NCc3ccc(F)cc3F)c1=O)[C@@H]1CN(C2=O)[C@@H](C)CC[C@]12CC(C)=NO2 [Example 179, (((3′S,5S,7′R)-10′-((2,4-difluorobenzyl)carbamoyl)-3,3′-dimethyl-1′,11′-dioxo-1′,4′,5′,11′-tetrahydro-3′H,4H,7′H-spiro[isoxazole-5,6′-[2,7]methanopyrido[1,2-a][1,4]diazonin]-12′-yl)oxy)methyl pentyl carbonate]	0.527	≥ 50000	
CCCCCOC(=O)OCOc1c2n(cc(C(=O)NCc3ccc(F)cc3F)c1=O)[C@@H]1CN(C2=O)[C@@H](C)CC[C@]12CC(OC)=NO2 [Example 180, (((3′S,5S,7′R)-10′-((2,4-difluorobenzyl)carbamoyl)-3-methoxy-3′-methyl-1′,11′-dioxo-1′,4′,5′,11′-tetrahydro-3′H,4H,7′H-spiro[isoxazole-5,6′-[2,7]methanopyrido[1,2-a][1,4]diazonin]-12′-yl)oxy)methyl pentyl carbonate]	0.274	≥ 50000	
CCCCCCOC(=O)OCOc1c2n(cc(C(=O)NCc3ccc(F)cc3F)c1=O)[C@@H]1CN(C2=O)[C@@H](C)CC[C@]12CC(C)=NO2 [Example 181, (((3′S,5S,7′R)-10′-((2,4-difluorobenzyl)carbamoyl)-3,3′-dimethyl-1′,11′-dioxo-1′,4′,5′,11′-tetrahydro-3′H,4H,7′H-spiro[isoxazole-5,6′-[2,7]methanopyrido[1,2-a][1,4]diazonin]-12′-yl)oxy)methyl hexyl carbonate]	0.262	14700	
CCCCCCOC(=O)OCOc1c2n(cc(C(=O)NCc3ccc(F)cc3F)c1=O)[C@@H]1CN(C2=O)[C@@H](C)CC[C@]12CC(OC)=NO2 [Example 182, (((3′S,5S,7′R)-10′-((2,4-difluorobenzyl)carbamoyl)-3-methoxy-3′-methyl-1′,11′-dioxo-1′,4′,5′,11′-tetrahydro-3′H,4H,7′H-spiro[isoxazole-5,6′-[2,7]methanopyrido[1,2-a][1,4]diazonin]-12′-yl)oxy)methyl hexyl carbonate]	0.29	47900	
CCCCCCCOC(=O)OCOc1c2n(cc(C(=O)NCc3ccc(F)cc3F)c1=O)[C@@H]1CN(C2=O)[C@@H](C)CC[C@]12CC(C)=NO2 [Example 183, (((3′S,5S,7′R)-10′-((2,4-difluorobenzyl)carbamoyl)-3,3′-dimethyl-1′,11′-dioxo-1′,4′,5′,11′-tetrahydro-3′H,4H,7′H-spiro[isoxazole-5,6′-[2,7]methanopyrido[1,2-a][1,4]diazonin]-12′-yl)oxy)methyl heptyl carbonate]	0.358	11400	
CCCCCCCOC(=O)OCOc1c2n(cc(C(=O)NCc3ccc(F)cc3F)c1=O)[C@@H]1CN(C2=O)[C@@H](C)CC[C@]12CC(OC)=NO2 [Example 184, (((3′S,5S,7′R)-10′-((2,4-difluorobenzyl)carbamoyl)-3-methoxy-3′-methyl-1′,11′-dioxo-1′,4′,5′,11′-tetrahydro-3′H,4H,7′H-spiro[isoxazole-5,6′-[2,7]methanopyrido[1,2-a][1,4]diazonin]-12′-yl)oxy)methyl heptyl carbonate]	0.441	9980	
CCCCCCCCOC(=O)OCOc1c2n(cc(C(=O)NCc3ccc(F)cc3F)c1=O)[C@@H]1CN(C2=O)[C@@H](C)CC[C@]12CC(OC)=NO2 [Example 185, (((3′S,5S,7′R)-10′-((2,4-difluorobenzyl)carbamoyl)-3-methoxy-3′-methyl-1′,11′-dioxo-1′,4′,5′,11′-tetrahydro-3′H,4H,7′H-spiro[isoxazole-5,6′-[2,7]methanopyrido[1,2-a][1,4]diazonin]-12′-yl)oxy)methyl octyl carbonate]	5.14	≥ 50000	
